According to patent US20240307362A1 (priority 2019, published 2024):
Where “and” joins values, the source holds several entries; their conditions need not be identical. Equal entries are not always repeated. Where two headings read alike, the source gives them in different places.

Legend:
human Bub1 = human Bub1 (Homo sapiens (Human), UniProt O43683); test: Bub1 high ATP kinase assay (TR-FRET); type: biochemical
From the text: Bub1-inhibitory activity of compounds of the present invention at a high ATP concentration was quantified employing the Bub1 TR-FRET high ATP kinase assay as described in the following paragraphs.
N-terminally His6-tagged recombinant catalytic domain of human Bub1 (amino acids 704-1085), expressed in insect cells (Hi5) and purified by Ni-NTA affinity chromatography and subsequent size exclusion chromatography, was used as enzyme.

[1] = target: mutEGFR (D770_N771insSVD) (Homo sapiens (Human), UniProt P00533, INS770SVD); test: biochemical; conditions: mutEGFR (D770_N771 insSVD) at 2 mM ATP IC50, 2 mM ATP
mutEGFR (D770_N771insSVD), sequence (P00533 other isoform, or with tags, fused parts or gaps ins SVD behind 770): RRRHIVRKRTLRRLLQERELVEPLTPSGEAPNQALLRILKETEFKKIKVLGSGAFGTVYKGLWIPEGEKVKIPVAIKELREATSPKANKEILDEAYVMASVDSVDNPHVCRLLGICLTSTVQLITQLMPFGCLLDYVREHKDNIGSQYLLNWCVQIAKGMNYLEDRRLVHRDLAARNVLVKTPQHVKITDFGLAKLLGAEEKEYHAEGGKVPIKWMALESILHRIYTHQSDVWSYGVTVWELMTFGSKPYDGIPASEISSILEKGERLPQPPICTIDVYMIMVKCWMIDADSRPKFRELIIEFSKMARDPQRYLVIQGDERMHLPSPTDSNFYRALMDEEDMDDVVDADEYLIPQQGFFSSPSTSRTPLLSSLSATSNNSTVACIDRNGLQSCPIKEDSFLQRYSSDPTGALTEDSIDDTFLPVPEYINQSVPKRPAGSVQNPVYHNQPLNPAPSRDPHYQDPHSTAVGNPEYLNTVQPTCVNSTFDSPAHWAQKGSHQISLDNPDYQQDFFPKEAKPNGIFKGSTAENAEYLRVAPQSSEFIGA

Ba/F3-EGFR-insSVD = test: Ba/F3 cell survival assay, EGFR-insSVD; type: cell-based
Outline: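 Ba/F3 cells stably expressing WT EGFR or EGFR-insSVD via retrovirus, grown without IL-3 on 10 ng/mL EGF, plated at 4000 cells/well. Compound exposure 48 h at 37 °C; viability read by CellTiter-Glo luminescence.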

Ba/F3-EGFR-WT = test: Ba/F3 cell survival assay, WT EGFR; type: cell-based
[2] = read-out: Bub1 high ATP (2 mM) IC50, 2 mM ATP
[3] = Mus musculus, BaF3, 48 h, read-out: BA/F3 (insSVD) IC50, cell viability, Cell Titer-Glo, 48 h, with 10 ng/mL EGF, without IL-3
[4] = Mus musculus, BaF3, 48 h, read-out: BA/F3 (wild type) IC50, cell viability, Cell Titer-Glo, 48 h, with 10 ng/mL EGF, without IL-3
[5] = read-out: BA/F3 (insSVD) IC50, cell viability, Cell Titer-Glo, 48 h, with 10 ng/mL EGF, without IL-3
[6] = read-out: BA/F3 (wild type) IC50, cell viability, Cell Titer-Glo, 48 h, with 10 ng/mL EGF, without IL-3
[7] = Bub1 high ATP (2 mM) IC50, 2 mM ATP

human Bub1, sequence (O43683 704-1085): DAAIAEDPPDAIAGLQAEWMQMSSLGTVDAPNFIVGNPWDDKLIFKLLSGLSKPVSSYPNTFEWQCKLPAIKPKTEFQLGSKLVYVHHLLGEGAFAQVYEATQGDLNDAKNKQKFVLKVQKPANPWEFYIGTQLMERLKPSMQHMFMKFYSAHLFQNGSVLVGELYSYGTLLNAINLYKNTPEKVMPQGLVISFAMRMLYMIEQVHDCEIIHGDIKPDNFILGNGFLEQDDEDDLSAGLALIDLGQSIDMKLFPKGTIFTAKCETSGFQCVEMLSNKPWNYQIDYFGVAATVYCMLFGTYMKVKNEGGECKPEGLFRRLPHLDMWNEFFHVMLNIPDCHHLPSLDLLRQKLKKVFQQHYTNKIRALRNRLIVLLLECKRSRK

| SMILES | IC50 (human Bub1; [2]) | IC50 [1] | IC50 (Ba/F3-EGFR-insSVD; [3]) | IC50 (Ba/F3-EGFR-WT; [4]) | IC50 (Ba/F3-EGFR-insSVD; [5]) | IC50 (Ba/F3-EGFR-WT; [6]) | IC50 (human Bub1; [7]) |
| --- | --- | --- | --- | --- | --- | --- | --- |
| Cc1c(F)cccc1Nc1c(-c2ccncc2OCC2(C)CCO2)[nH]c2c1C(=O)NCC2 (racemic) [Example 83, 3-(3-fluoro-2-methylanilino)-2-(3-{[2-methyloxetan-2-yl]methoxy}pyridin-4-yl)-1,5,6,7-tetrahydro-4H-pyrrolo[3,2-c]pyridin-4-one] | > 20 µM | 0.246 nM | 41.9 nM | 986 nM |  |  |  |
| Cc1cccc(Nc2c(-c3ccncc3OCC3(C)CCO3)[nH]c3c2C(=O)NCC3)c1Cl (single isomer, unassigned; (+)) [Example 56, (+)-3-(2-chloro-3-methylanilino)-2-{3-[(2-methyloxetan-2-yl)methoxy]pyridin-4-yl}-1,5,6,7-tetrahydro-4H-pyrrolo[3,2-c]pyridin-4-one] | 16.1 µM | 0.15 nM |  |  | 35.1 nM | 489 nM |  |
| CCc1c(Cl)cccc1Nc1c(-c2ccncc2OCC2(C)CCO2)[nH]c2c1C(=O)NCC2 (stereo not drawn) [Example 78, 3-(3-chloro-2-ethylanilino)-2-(3-{[2-methyloxetan-2-yl]methoxy}pyridin-4-yl)-1,5,6,7-tetrahydro-4H-pyrrolo[3,2-c]pyridin-4-one] | 2.8 µM | 0.267 nM | 30.4 nM | 698 nM |  |  |  |
| COc1c(Cl)cc(F)cc1Nc1c(-c2ccncc2OCC2(C)CCO2)[nH]c2c1C(=O)NCC2 (single isomer, unassigned) [Example 69, 3-(3-chloro-5-fluoro-2-methoxyanilino)-2-(3-{[2-methyloxetan-2-yl]methoxy}pyridin-4-yl)-1,5,6,7-tetrahydro-4H-pyrrolo[3,2-c]pyridin-4-one] |  | 0.317 nM |  |  | 241 nM | 1430 nM | 13.5 µM |
| Cc1c(Cl)cccc1Nc1c(-c2ccncc2OCC2(C)CCO2)[nH]c2c1C(=O)NCC2 (single isomer, unassigned; (-)) [Example 81, (−)-3-(3-chloro-2-methylanilino)-2-(3-{[2-methyloxetan-2-yl]methoxy}pyridin-4-yl)-1,5,6,7-tetrahydro-4H-pyrrolo[3,2-c]pyridin-4-one] | 5.05 µM | 0.129 nM | 96.4 nM | 664 nM |  |  |  |
| COc1c(Cl)cc(F)cc1Nc1c(-c2ccncc2OCC2(C)CCO2)[nH]c2c1C(=O)NCC2 (single isomer, unassigned) [Example 70, 3-(3-chloro-5-fluoro-2-methoxyanilino)-2-(3-{[2-methyloxetan-2-yl]methoxy}pyridin-4-yl)-1,5,6,7-tetrahydro-4H-pyrrolo[3,2-c]pyridin-4-one] |  | 0.161 nM |  |  | 32.7 nM | 537 nM | 18.8 µM and > 20 µM |
| Cc1cccc(Nc2c(-c3ccncc3OCC3(C)CCO3)[nH]c3c2C(=O)NCC3)c1Cl (single isomer, unassigned; (-)) [Example 57, (−)-3-(2-chloro-3-methylanilino)-2-{3-[(2-methyloxetan-2-yl)methoxy]pyridin-4-yl}-1,5,6,7-tetrahydro-4H-pyrrolo[3,2-c]pyridin-4-one] | 13 µM | 0.264 nM |  |  | 402 nM | 3250 nM |  |
| Cc1c(Cl)cccc1Nc1c(-c2ccncc2OCC2(C)CCO2)[nH]c2c1C(=O)NCC2 (racemic) [Example 80, 3-(3-chloro-2-methylanilino)-2-(3-{[2-methyloxetan-2-yl]methoxy}pyridin-4-yl)-1,5,6,7-tetrahydro-4H-pyrrolo[3,2-c]pyridin-4-one] | 6.64 µM | 0.187 nM | 35.2 nM | 546 nM |  |  |  |
| CCC1(COc2cnccc2-c2[nH]c3c(c2Nc2cccc(C)c2Cl)C(=O)NCC3)COC1 [Example 86, 3-(2-chloro-3-methylanilino)-2-{3-[(3-ethyloxetan-3-yl)methoxy]pyridin-4-yl}-1,5,6,7-tetrahydro-4H-pyrrolo[3,2-c]pyridin-4-one] | > 5.7 µM | 0.187 nM | 255 nM | 899 nM |  |  |  |
